From patent publication US10364256B2 (GlaxoSmithKline Intellectual Property Development Limited, priority 2015, dated 2019)

Tests used:
[1] = test system: NQO1 specific enzyme activity in BEAS-2B cells (marker for NRF2 activation); assay: BEAS-2B NQO1 MTT Assay; assay type: cell-based; settings: Homo sapiens, compound incubated 48 hours, read-out: EC50 (NQO1 specific enzyme activity induction)
Source text: BEAS-2B NQO1 MTT Assay NAD(P)H:quinone oxidoreductase 1 (NQO1), also called DT diaphorase, is a homodimeric FAD-containing enzyme that catalyzes obligatory NAD(P)H-dependent two-electron reductions of quinones and protects cells against the toxic and neoplastic effects of free radicals and reactive oxygen species arising from one-electron reductions. The transcription of NQO1 is finely regulated by NRF2, and thus NQO1 activity is a good marker for NRF2 activation. On day one, frozen BEAS-2B cells (ATCC) are thawed in a water bath, counted, and re-suspended at a concentration of 250,000 cells/mL. Fifty microliters of cells are plated in 384 well black clear-bottomed plates. Plates are incubated at 37° C., 5% CO2 overnight. On day two, plates are centrifuged and 50 nL of compound or controls are added to the cells. Plates are then incubated at 37° C., 5% CO2 for 48 hours. On day four, medium is aspirated from the plate and crude cell lysates are made by adding 13 uL of 1× Cell Signaling Technologies lysis buffer with 1 Complete, Mini, EDTA-free Protease Inhibitor Tablet (Roche) for each 10 mL of lysis buffer. After lysis plates are incubated for 20 minutes at room temperature. Two microliters of lysate are removed for use in Cell Titer Glo assay (Promega) and MTT cocktail is prepared (Prochaska et. al. 1998) for measurement of NQO1 activity. Fifty microliters of MTT cocktail is added to each well, plate is centrifuged, and analyzed on an Envision plate reader (Perkin Elmer) using Absorbance 570 nm label for 30 minutes. Product formation is measured kinetically and the pEC50 of NQO1 specific activity induction is calculated by plotting the change in absorbance (Delta OD/min) versus the log of compound concentration followed by 3-parameter fitting. pEC50 is the negative log of the EC50.

[2] = target: T1, full length Keap1 protein / full length NRF2 protein (Homo sapiens, UniProt Q14145); assay: NRF2-Keap1 TR-FRET Low Protein Assay; assay type: binding; settings: 1.25 nM Keap1 FlagHis and 2.5 nM biotin-NRF2 added
T1 construct: full length NRF2 protein and full length Keap1 protein (Keap1 exists a dimer) are used; His
T1 sequence (Q14145 whole entry): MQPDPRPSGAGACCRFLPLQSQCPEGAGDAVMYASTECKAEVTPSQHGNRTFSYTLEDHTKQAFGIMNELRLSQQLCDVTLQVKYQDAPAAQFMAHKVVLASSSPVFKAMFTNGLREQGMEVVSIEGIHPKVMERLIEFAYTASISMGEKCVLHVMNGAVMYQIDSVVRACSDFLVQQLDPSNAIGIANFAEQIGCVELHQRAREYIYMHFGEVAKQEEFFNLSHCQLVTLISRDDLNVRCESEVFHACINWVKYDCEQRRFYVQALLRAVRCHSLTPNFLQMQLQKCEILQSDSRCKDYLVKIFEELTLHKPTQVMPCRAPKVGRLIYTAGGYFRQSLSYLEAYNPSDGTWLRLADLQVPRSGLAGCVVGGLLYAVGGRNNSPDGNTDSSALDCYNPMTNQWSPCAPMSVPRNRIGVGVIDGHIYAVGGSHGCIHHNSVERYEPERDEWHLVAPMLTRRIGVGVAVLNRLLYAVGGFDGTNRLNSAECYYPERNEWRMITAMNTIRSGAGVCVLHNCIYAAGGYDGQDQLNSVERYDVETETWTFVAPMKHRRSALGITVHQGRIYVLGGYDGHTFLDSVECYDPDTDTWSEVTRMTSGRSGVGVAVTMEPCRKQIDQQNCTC
Source text: NRF2-Keap1 TR-FRET Low Protein Assay In the NRF2-Keap1 TR-FRET (time-resolved fluorescence resonance energy transfer) low protein assay, full length NRF2 protein and full length Keap1 protein (Keap1 exists a dimer) are used. The assay detects a compound's ability to displace the binding of Keap1 […] with biotinylated Avi-NRF2 protein. Biotin-NRF2 binds to streptavidin-europium (a component of the detection mix) and Keap1 […] is recognized by anti-Flag APC (allophycocyanin) antibody (also a component of the detection mix). If binding occurs between the two proteins, there will be an energy transfer from the Eu+3 (donor) at 615 nm to the APC (acceptor) at 665 nm. A potential NRF2 inhibitor will cause a reduction in the TR-FRET signal by interfering with the binding of Keap1 to NRF2. Ten nanoliters of 100× compound dose response curves (serial 3-fold dilutions) in DMSO are stamped using an Echo liquid handling system (Labcyte) into 384-well, low volume, black assay plates (Greiner, #784076), with DMSO in columns 6 and 18. An additional 90 nl DMSO is added to each well, to bring the total volume to 100 nl per well. The top concentration of compound is located in columns 1 and 13, with the serial dilutions going across the row. All reagents are diluted in assay buffer (50 mM Tris, pH 8.0, 5 mM MgCl2, 100 mM NaCl, 0.005% BSA, 1 mM DTT, and 2 mM CHAPS. The BSA, DTT, and CHAPS are added to the assay buffer on the day of assay. […] Wells in column 18 receive 5 ul of assay buffer instead. Plates are centrifuged at 500 rpm for 1 minute, covered with a plate lid, and incubated at 37° C. for 2.25 hours. Plates are then removed from the incubator and allowed to cool to RT for 15 minutes. Five microliters of 2.5 nM biotin-NRF2 protein is then added to all wells of the plates and the plates are spun at 500 rpm for 1 minute, followed by incubating at 4° C. for 1.25 hours. The plates are then allowed to warm to RT for 15 minutes, followed by the addition of 10 ul of detection mix (1 nM Streptavidin Eu+W1024 and 5 ug/ml mouse anti-DYKDDDDK IgG conjugated to SureLight APC antibody; both from Columbia Biosciences) to all wells. Plates are spun at 500 rpm for 1 minute, incubated for 1 hour at RT, and read on an Envision plate reader using a 320 nm excitation filter and 615 nm and 665 nm emission filters. […] Data analysis is handled using the software package Abase XE (Surrey, United Kingdom). […] For calculation of pIC50s, Abase XE uses a four parameter equation. pIC50 is the negative log of the IC50.

[3] = target: T2, Keap1 Kelch domain (321-609) / TAMRA-labeled 16mer NRF2 peptide (ETGE motif) (Homo sapiens, UniProt Q14145); assay: NRF2-Keap1 FP Assay (Keap1 Kelch fluorescence polarization); assay type: binding; settings: 20 nM Keap1 (321-609), 8 nM Tamra labeled peptide
T2 construct: the Kelch domain (321-609) of Keap1 is used
T2 sequence (Q14145 321-609): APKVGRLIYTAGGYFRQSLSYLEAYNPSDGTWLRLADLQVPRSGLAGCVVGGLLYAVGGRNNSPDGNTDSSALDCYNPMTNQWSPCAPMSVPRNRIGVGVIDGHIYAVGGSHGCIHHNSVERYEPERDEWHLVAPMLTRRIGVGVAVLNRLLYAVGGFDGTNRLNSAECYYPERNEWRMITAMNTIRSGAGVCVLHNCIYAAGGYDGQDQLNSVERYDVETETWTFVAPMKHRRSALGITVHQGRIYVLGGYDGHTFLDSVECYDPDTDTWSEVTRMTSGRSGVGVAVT
Source text: One model for the NRF2-Keap1 interaction is through two binding sites in the Neh2 domain on NRF2. The two sites are referred to as the DLG binding motif (latch domain, uM affinity) and the ETGE binding motif (hinge domain, nM affinity). The Keap1 protein consists of an N-terminal region (NTR), a broad complex, tramtrack, and brick a′ brac domain (BTB), an intervening region (IVR), a double glycine repeat domain (DGR or Kelch), and a C-terminal region. The DLG and ETGE motifs of NRF2's Neh2 domain bind to the Kelch domain of Keap1 at different affinities. In the Keap1 Kelch fluorescence polarization (FP) assay, a TAMRA-labeled 16mer peptide (AFFAQLQLDEETGEFL) containing the ETGE motif of NRF2 and the Kelch domain (321-609) of Keap1 is used. The assay determines if a compound interferes with the binding between Keap1 […] and the TAMRA-labeled peptide. Binding of TAMRA-labeled NRF2 peptide to Keap1 (321-609) results in a high FP signal. If a compound interferes with the binding between the peptide and the protein, it will cause the assay signal to decrease. Thus, assay signal is inversely proportional to binding inhibition.
100 nl of 100× compound dose response curves (serial 3-fold dilutions) in DMSO are stamped using an Echo liquid handling system (Labcyte) into 384-well low volume black assay plates (Greiner, #784076), with DMSO in columns 6 and 18. The top concentration of compound is located in columns 1 and 13. Keap1 (321-609) is diluted to 40 nM (2×) in 1× assay buffer (50 mM Tris, pH 8.0, 100 mM NaCl, 5 mM MgCl2, 1 mM DTT, 2 mM CHAPS, and 0.005% BSA) and 5 ul is added using a Multidrop Combi (Thermo Electron Corporation) equipped with a metal tip dispenser to all wells of the compound plate, except column 18. Column 18 receives only 5 ul of assay buffer. Immediately, 5 uL of 16 nM (2×) of Tamra labeled peptide (AFFAQLQLDEETGEFL, 21st Century Biochemicals) is added to all wells of the plate. The plates are spun at 500 rpm for 1 min, incubated for 1 hr at room temperature, and read on an Analyst GT (Molecular Devices) equipped with excitation (530/25 nm) and emission (580/10 nm) filters designed for Tamra probes. A 561 nm dichroic mirror is also used in the Analyst. The final assay concentrations of Keap1 (321-609) and Tamra labeled peptide are 20 nM and 8 nM, respectively. Fluorescence measurements, represented as mP, are used in the transformation of the data. Compound activity is calculated based on percent inhibition, normalized against controls in the assay (Control 1 contains the Tamra peptide and Keap1 (321-609) together (0% response) and control 2 contains the Tamra peptide alone (100% response)). Data analysis is handled using the software package Abase XE (Surrey, United Kingdom. The % inhibition values are calculated by the equation: 100−(100*((compound response−average control 2)/(average control 1−average control2))). For calculation of pIC50s, Abase XE uses a four parameter equation. pIC50 is the negative log of the IC50.

SMILES	EC50 [1] [µM]	IC50 [2] [µM]	IC50 [3] [µM]
Cc1c(O[C@@H](C)C2CCCCC2)cccc1-c1cccc(-n2ncc(C(=O)O)c2[C@H]2C[C@@H]2c2cn(C)nn2)c1 (racemic) [Example 71, 1-(3′-((S)-1-Cyclohexylethoxy)-2′-methyl-[1,1′-biphenyl]-3-yl)-5-(trans-2-(1-methyl-1H-1,2,3-triazol-4-yl)cyclopropyl)-1H-pyrazole-4-carboxylic Acid]	1 to 10	1 to 10	1 to 10
Cc1c(OCC2CCCCC2)cccc1-c1cccc(-n2ncc(C(=O)O)c2[C@H]2C[C@@H]2c2cn(C)nn2)c1 (racemic) [Example 72, 1-(3′-(Cyclohexylmethoxy)-2′-methyl-[1,1′-biphenyl]-3-yl)-5-(trans-2-(1-methyl-1H-1,2,3-triazol-4-yl)cyclopropyl)-1H-pyrazole-4-carboxylic Acid]	0.01 to 0.1	0.1 to 1	0.1 to 1
CCn1cc([C@@H]2C[C@H]2c2c(C(=O)O)cnn2-c2cccc(-c3cccc(O[C@@H](C)C4CCCCC4)c3)c2)nn1 (racemic) [Example 76, 1-(3′-((S)-1-Cyclohexylethoxy)-[1,1′-biphenyl]-3-yl)-5-(trans-2-(1-ethyl-1H-1,2,3-triazol-4-yl)cyclopropyl)-1H-pyrazole-4-carboxylic acid]	0.001 to 0.01	0.01 to 0.1	0.01 to 0.1
C[C@H](Oc1cccc(-c2cccc(-n3ncc(C(=O)O)c3[C@@H]3C[C@H]3c3cn(C4COC4)nn3)c2)c1)C1CCCCC1 (racemic) [Example 77, 1-(3′-((S)-1-Cyclohexylethoxy)-[1,1′-biphenyl]-3-yl)-5-(trans-2-(1-(oxetan-3-yl)-1H-1,2,3-triazol-4-yl)cyclopropyl)-1H-pyrazole-4-carboxylic acid]	0.01 to 0.1	0.01 to 0.1	0.01 to 0.1
C[C@H](Oc1cccc(-c2cccc(-n3ncc(C(=O)O)c3[C@@H]3C[C@H]3c3cn(C4CCC4)nn3)c2)c1)C1CCCCC1 (racemic) [Example 78, 5-(trans-2-(1-Cyclobutyl-1H-1,2,3-triazol-4-yl)cyclopropyl)-1-(3′-((S)-1-cyclohexylethoxy)-[1,1′-biphenyl]-3-yl)-1H-pyrazole-4-carboxylic acid]	0.001 to 0.01	0.01 to 0.1	0.01 to 0.1
C[C@H](Oc1cccc(-c2cccc(-n3ncc(C(=O)O)c3[C@@H]3C[C@H]3c3cn(C4CN(C(=O)OC(C)(C)C)C4)nn3)c2)c1)C1CCCCC1 (racemic) [Example 80, 5-(trans-2-(1-(1-(tert-Butoxycarbonyl)azetidin-3-yl)-1H-1,2,3-triazol-4-yl)cyclopropyl)-1-(3′-((S)-1-cyclohexylethoxy)-[1,1′-biphenyl]-3-yl)-1H-pyrazole-4-carboxylic acid]	0.01 to 0.1	0.01 to 0.1	0.1 to 1
C[C@H](Oc1cccc(-c2cccc(-n3ncc(C(=O)O)c3[C@@H]3C[C@H]3c3cn(C4CCN(C(=O)OC(C)(C)C)CC4)nn3)c2)c1)C1CCCCC1 (racemic) [Example 81, 5-(trans-2-(1-(1-(tert-Butoxycarbonyl)piperidin-4-yl)-1H-1,2,3-triazol-4-yl)cyclopropyl)-1-(3′-((S)-1-cyclohexylethoxy)-[1,1′-biphenyl]-3-yl)-1H-pyrazole-4-carboxylic acid]	0.01 to 0.1	0.1 to 1	0.1 to 1
C[C@H](Oc1cccc(-c2cccc(-n3ncc(C(=O)O)c3[C@@H]3C[C@H]3c3cn(C4CCN(C)CC4)nn3)c2)c1)C1CCCCC1 (racemic) [Example 82, 1-(3′-((S)-1-Cyclohexylethoxy)-[1,1′-biphenyl]-3-yl)-5-(trans-2-(1-(1-methylpiperidin-4-yl)-1H-1,2,3-triazol-4-yl)cyclopropyl)-1H-pyrazole-4-carboxylic acid]	0.01 to 0.1	0.01 to 0.1	0.01 to 0.1
C[C@H](Oc1cccc(-c2cccc(-n3ncc(C(=O)O)c3[C@@H]3C[C@H]3c3cn(C4CCCCC4)nn3)c2)c1)C1CCCCC1 (racemic) [Example 84, 5-(trans-2-(1-Cyclohexyl-1H-1,2,3-triazol-4-yl)cyclopropyl)-1-(3′-((S)-1-cyclohexylethoxy)-[1,1′-biphenyl]-3-yl)-1H-pyrazole-4-carboxylic acid]	0.01 to 0.1	0.01 to 0.1	0.1 to 1
